Experimental data taken from US9890117B2, “Benzamide compounds and related methods of use” (Northwestern University, priority 2012, dated 2018).

Legend:
[1] = Microsomal stability screen, mouse; settings: 1 μM
N2a cells = test: Toxicity monitoring in N2a cells; assay type: cell-based
Procedure: To assess SIRT2 inhibition activity in cells, an increase in α-tubulin K40 acetylation (α-tubulin is a substrate for SIRT2) in neuronal N2a and in wild type and HD ST141 cell lines was measured. In this bioactivity test, extracts from compound-treated cells were resolved on SDS-PAGE and subjected to Western analysis using primary antibodies specific to K40 acetylated α-tubulin. Trichostatin A (TSA), a potent HDAC inhibitor, was used as a positive control. To normalize the levels of acetylated α-tubulin we used total α-tubulin and GADPH proteins, detected by Western reactive antibodies specific to total α-tubulin and GADPH. […] FIGS. 2A-B show the bioactivity of 61 and 64 in N2a cells at three tested concentrations (10, 25, and 50 μM). Toxicity of the compounds was monitored in both cell lines, and most of them were non-toxic up to 50 μM in a 6 h treatment.

WT st14a cells = test: Toxicity monitoring in WT st14a cells; assay type: cell-based; settings: up to 18 h treatment
[2] = Microsomal stability screen, human; settings: 1 μM

Mean remaining parent NADPH-free (%) [1]: 90%
Mean remaining parent with NADPH (%) [1]: 2%
Mean remaining parent NADPH-free (%) [2]: 106%
Mean remaining parent with NADPH (%) [2]: 2%
Structure (SMILES): COc1ccc(N(C)S(=O)(=O)c2cccc(C(=O)Nc3ccc(C#N)cc3)c2)cc1 [Compound 90, N-(4-Cyanophenyl)-3-(N-(4-methoxyphenyl)-N-methylsulfamoyl)benzamide]
toxicity (N2a cells; 25 μM): partially toxic
toxicity (N2a cells; 50 μM): toxic
toxicity (WT st14a cells): no toxicity was observed
